In patent US6670363B1, “Azole compounds as therapeutic agents for fungal infections” (Ranbaxy Laboratories Limited, priority 2000, dated 2003):
In brackets after ≈: the same amount, converted by molar mass.

Key:
Type in all cases: cell-based
A. fumigatus s 1008 = experiment: In vitro MIC, NCCLS M38P broth method (RPMI 1640/MOPS pH7), Aspergillus fumigatus; conditions: A. fumigatus strain 1008
Candida = experiment: In vitro MIC, NCCLS M27A, Candida species; design: MIC, Candida albicans 1.549 / MIC, Candida albicans Y-01-19 / MIC, C. krusei 766-1 / MIC, C. krusei Q. C / MIC, Candida tropicalis ATCC / MIC, C. glabrata 90030: unit not given beside the values; MIC, Candida albicans A 26 / MIC, C. parapsilosis Q. C.: unit not given here; conditions: for MIC, C. glabrata 90030: C. glabrata strain 90030; for MIC, C. krusei 766-1: C. krusei strain 766-1; for MIC, C. krusei Q. C: C. krusei strain Q. C; for MIC, C. parapsilosis Q. C.: C. parapsilosis strain Q. C.; for MIC, Candida albicans 1.549: Candida albicans strain 1.549; for MIC, Candida albicans A 26: Candida albicans strain A 26; for MIC, Candida albicans Y-01-19: Candida albicans strain Y-01-19
Cryptococcus neoformans = experiment: In vitro MIC, NCCLS M27A, Cryptococcus neoformans; design: MIC, C. neoformans I: unit not given beside the values; MIC, C. neoformans M 106: unit not given here; conditions: for MIC, C. neoformans I: C. neoformans strain I; for MIC, C. neoformans M 106: C. neoformans strain M 106
Histoplasma capsulatum = tested on: Histoplasma capsulatum

SMILES	MIC, A. fumigatus 1008 (A. fumigatus s 1008)	MIC, C. glabrata 90030 (Candida)	MIC, C. krusei 766-1 (Candida)	MIC, C. krusei Q. C (Candida)	MIC, C. parapsilosis Q. C. (Candida)	MIC, Candida albicans 1.549 (Candida)	MIC, Candida albicans A 26 (Candida)	MIC, Candida albicans Y-01-19 (Candida)	MIC, Candida tropicalis ATCC (Candida)	MIC, C. neoformans I (Cryptococcus neoformans)	MIC, C. neoformans M 106 (Cryptococcus neoformans)	MIC, H. capsulatum (Histoplasma capsulatum) [µg/mL]
Cc1ccc(N2CCN(c3ccc(-n4cnn([C@H](C)[C@@](O)(Cn5cncn5)c5ccc(F)cc5F)c4=O)cc3)CC2)c(C)c1 [Compound 20, 2-{[1R2S/1S2R]-2-(2,4-Difluorophenyl)-2-hydroxy-1-methyl-3-(1H-1,2,4-triazol-1-yl)propyl}-4-{4-[4-(2,4-dimethylphenyl)-1-piperazinyl]phenyl}-3-(2H,4H)-1,2,4-triazolone]	>16	2.00	>16	2.00	0.12	8.00	<0.03	2.00	<0.03	0.25	0.25	0.5 (≈ 0.832 µM)
Cc1ccc(Cl)cc1N1CCN(c2ccc(-n3cnn([C@H](C)[C@](O)(Cn4cncn4)c4ccc(F)cc4F)c3=O)cc2)CC1 [Compound 21, 2-{[1R2R/1S2S]-2-(2,4-Difluorophenyl)-2-hydroxy-1-methyl-3-(1H-1,2,4-triazol-1-yl)propyl}-4-{4-[4-(5-chloro-2-methylphenyl)-1-piperazinyl]phenyl}-3-(2H,4H)-1,2,4-triazolone]	1.00	0.50	0.50	0.25	0.06	0.25	<0.03	0.25	<0.03	<0.03	<0.03	0.12 (≈ 0.193 µM)
Cc1ccc(Cl)cc1N1CCN(c2ccc(-n3cnn([C@H](C)[C@@](O)(Cn4cncn4)c4ccc(F)cc4F)c3=O)cc2)CC1 [Compound 22, 2-{[1R2S/1S2R]-2-(2,4-Difluorophenyl)-2-hydroxy-1-methyl-3-(1H-1,2,4-triazol-1-yl)propyl}-4-{4-[4-(5-chloro-2-methylphenyl)-1-piperazinyl]phenyl}-3-(2H,4H)-1,2,4-triazolone]	>16	1.00	8.00	1.00	0.25	2.00	<0.03	1.00	<0.03	0.12	0.06	> 16
Cc1ccc(N2CCN(c3ccc(-n4cnn([C@H](C)[C@](O)(Cn5cncn5)c5ccc(F)cc5F)c4=O)cc3)CC2)cc1C [Compound 23, 2-{[1R2R/1S2S]-2-(2,4-Difluorophenyl)-2-hydroxy-1-methyl-3-(1H-1,2,4-triazol-1-yl)propyl}-4-{4-[4-(3,4-dimethylphenyl)-1-piperazinyl]phenyl}-3-(2H,4H)-1,2,4-triazolone]	1.00	0.50	0.50	0.25	<0.03	0.25	<0.03	0.50	<0.03	<0.03	<0.03	0.06 (≈ 0.0999 µM)
Cc1ccc(N2CCN(c3ccc(-n4cnn([C@H](C)[C@@](O)(Cn5cncn5)c5ccc(F)cc5F)c4=O)cc3)CC2)cc1C [Compound 24, 2-{[1R2S/1S2R]-2-(2,4-Difluorophenyl)-2-hydroxy-1-methyl-3-(1H-1,2,4-triazol-1-yl)propyl}-4-{4-[4-(3,4-dimethylphenyl)-1-piperazinyl]phenyl}-3-(2H,4H)-1,2,4-triazolone]	>16	2.00	>16	16.0	0.25	2.00	<0.03	16.00	<0.03	0.50	1.00	0.25 (≈ 0.416 µM)
C[C@@H](n1ncn(-c2ccc(N3CCN(c4ccccc4F)CC3)cc2)c1=O)[C@](O)(Cn1cncn1)c1ccc(F)cc1F [Compound 25, 2-{[1R2R/1S2S]-2-(2,4-Difluorophenyl)-2-hydroxy-1-methyl-3-(1H-1,2,4-triazol-1-yl)propyl}-4-{4-[4-(2-fluorophenyl)-1-piperazinyl]phenyl}-3-(2H,4H)-1,2,4-triazolone]	0.50	0.12	0.12	0.06	<0.03	0.06	<0.03	0.12	<0.03	<0.03	<0.03	0.06 (≈ 0.102 µM)
Cc1nn([C@H](C)[C@@](O)(Cn2cncn2)c2ccc(F)cc2F)c(=O)n1-c1ccc(N2CCN(c3ccccc3F)CC2)cc1 [Compound 26, 2-{[1R2S/1S2R]-2-(2,4-Difluorophenyl)-2-hydroxy-1-methyl-3-(1H-1,2,4-triazol-1-yl)propyl}-4-{4-[4-(2-fluorophenyl)-1-piperazinyl]phenyl}-3-(2H,4H)-5-methyl-1,2,4-triazolone]	8.00	1.00	2.00	0.50	<0.03	0.25	<0.03	1.00	<0.03	<0.03	<0.03	0.12 (≈ 0.198 µM)
COc1ccc(F)cc1N1CCN(c2ccc(-n3c(C)nn([C@H](C)[C@](O)(Cn4cncn4)c4ccc(F)cc4F)c3=O)cc2)CC1 [Compound 27, 2-{[1R2R/1S2S]-2-(2,4-Difluorophenyl)-2-hydroxy-1-methyl-3-(1H-1,2,4-triazol-1-yl)propyl}-4-{4-[4-(2-methoxy-5-fluorophenyl)-1-piperazinyl]phenyl}-3-(2H,4H)-5-methyl-1,2,4-triazolone]	>16	1.00	2.00	0.50	<0.03	1.00	<0.03	0.50	<0.03	<0.03	<0.03	< 0.03
COc1ccc(F)cc1N1CCN(c2ccc(-n3c(C)nn([C@H](C)[C@@](O)(Cn4cncn4)c4ccc(F)cc4F)c3=O)cc2)CC1 [Compound 28, 2-{[1R2S/1S2R]-2-(2,4-Difluorophenyl)-2-hydroxy-1-methyl-3-(1H-1,2,4-triazol-1-yl)propyl}-4-{4-[4-(2-methoxy-5-fluorophenyl)-1-piperazinyl]phenyl}-3-(2H,4H)-5-methyl-1,2,4-triazolone]	>16	4.00	>16	16.0	0.25	8.00	<0.03	4.00	<0.03	0.25	1.00	2 (≈ 3.15 µM)
Cc1nn([C@H](C)[C@](O)(Cn2cncn2)c2ccc(F)cc2F)c(=O)n1-c1ccc(N2CCN(c3cc(Cl)cc(Cl)c3)CC2)cc1 [Compound 29, 2-{[1R2R/1S2S]-2-(2,4-Difluorophenyl)-2-hydroxy-1-methyl-3-(1H-1,2,4-triazol-1-yl)propyl}-4-{4-[4-(3,5-dichlorophenyl)-1-piperazinyl]phenyl}-3-(2H,4H)-5-methyl-1,2,4-triazolone]	0.50	0.50	0.50	0.25	<0.03	0.25	<0.03	0.25	<0.03	<0.03	<0.03	0.25 (≈ 0.381 µM)
Cc1nn([C@H](C)[C@@](O)(Cn2cncn2)c2ccc(F)cc2F)c(=O)n1-c1ccc(N2CCN(c3cc(Cl)cc(Cl)c3)CC2)cc1 [Compound 30, 2-{[1R2S/1S2R]-2-(2,4-Difluorophenyl)-2-hydroxy-1-methyl-3-(1H-1,2,4-triazol-1-yl)propyl}-4-{4-[4-(3,5-dichlorophenyl)-1-piperazinyl]phenyl}-3-(2H,4H)-5-methyl-1,2,4-triazolone]	>16	1.00	8.00	1.00	0.12	0.50	<0.03	1.00	<0.03	0.12	0.25	0.5 (≈ 0.763 µM)
